Our source for the IC50 and ED30 values is ChEMBL document CHEMBL1153253, “Imidazolinones as nonpeptide angiotensin II receptor antagonists” (Bioorg Med Chem Lett, 1994).

Experiment [1] has as its target T1, Type-1 angiotensin II receptor A (Rattus norvegicus, UniProt P25095).
T1 sequence (P25095 whole entry): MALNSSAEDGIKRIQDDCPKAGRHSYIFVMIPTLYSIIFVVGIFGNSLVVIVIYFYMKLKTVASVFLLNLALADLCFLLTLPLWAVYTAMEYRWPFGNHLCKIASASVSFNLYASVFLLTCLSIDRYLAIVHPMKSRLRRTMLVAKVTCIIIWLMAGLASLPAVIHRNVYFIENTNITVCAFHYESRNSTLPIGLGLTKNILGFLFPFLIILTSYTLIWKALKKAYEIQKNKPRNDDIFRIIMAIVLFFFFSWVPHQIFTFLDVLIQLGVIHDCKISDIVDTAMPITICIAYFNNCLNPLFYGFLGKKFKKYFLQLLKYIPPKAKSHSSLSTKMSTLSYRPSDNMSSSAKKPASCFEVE
Put plainly: Displacement of [125I]- Ang II from type 1 Angiotensin II receptor.

For experiment [2], the system named is Rattus norvegicus. Kind of experiment: Effective dose required to lower blood pressure by 30 mm Hg in renal hypertensive rats following intravenous administration. Type of experiment: functional.
Experiment [3] deals with T2, Type-2 angiotensin II receptor (Homo sapiens, UniProt P50052).
T2 sequence (P50052 whole entry): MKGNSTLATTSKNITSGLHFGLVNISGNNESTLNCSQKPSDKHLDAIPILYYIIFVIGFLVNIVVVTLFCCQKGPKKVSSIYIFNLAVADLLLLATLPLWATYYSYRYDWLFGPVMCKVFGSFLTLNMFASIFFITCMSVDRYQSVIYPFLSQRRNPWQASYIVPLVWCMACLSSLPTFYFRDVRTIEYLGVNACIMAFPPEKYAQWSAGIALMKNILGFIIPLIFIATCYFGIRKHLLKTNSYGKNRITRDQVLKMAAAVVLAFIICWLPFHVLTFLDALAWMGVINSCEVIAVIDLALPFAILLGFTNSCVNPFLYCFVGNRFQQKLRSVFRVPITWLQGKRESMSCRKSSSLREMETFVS
Kind of experiment: The compound was tested for the ability to displace 50% of totally specifically bound [125I]- Ang II from Angiotensin II receptor, type 2.

In experiment [4] the target is T3, Type-1 angiotensin II receptor (Homo sapiens, UniProt P30556).
T3 sequence (P30556 whole entry): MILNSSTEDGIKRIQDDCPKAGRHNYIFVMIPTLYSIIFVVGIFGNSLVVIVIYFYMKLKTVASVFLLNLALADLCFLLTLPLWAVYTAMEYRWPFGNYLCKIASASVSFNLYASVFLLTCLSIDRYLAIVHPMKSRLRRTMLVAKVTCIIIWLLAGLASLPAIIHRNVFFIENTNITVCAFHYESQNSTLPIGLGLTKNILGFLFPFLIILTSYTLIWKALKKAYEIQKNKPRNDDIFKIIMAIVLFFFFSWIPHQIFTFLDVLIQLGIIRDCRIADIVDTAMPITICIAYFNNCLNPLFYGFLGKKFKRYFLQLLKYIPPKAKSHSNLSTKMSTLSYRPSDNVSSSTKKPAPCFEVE
Kind of experiment: The compound was tested for the ability to displace 50% of totally specifically bound [125I]- Ang II from Angiotensin II receptor, type 1 site.

`O=C1N(Cc2ccc(-c3ccccc3-c3nn[nH]n3)cc2)C(c2ccccc2)=NC1(c1ccccc1)c1ccccc1`: the IC50 (as a rule, the concentration that inhibits the measured activity by half) in experiment [1] was 1400 nM. In other words, the single-digit micromolar range.
As for `CCCC1=NC2(CCCCC2)C(=O)N1Cc1ccc(-c2ccccc2-c2nnn[nH]2)cc1`, the ED30 in experiment [2] stood at 0.25 mg/kg. The compound also had a half-maximal inhibitory concentration (IC50) in experiment [1] of 3 nM.
The like results for `CCCC1=NC(C)(C)C(=O)N1Cc1ccc(-c2ccccc2-c2nn[nH]n2)cc1` were, in that order, 0.36 mg/kg and 4 nM.
In turn, `CCCCC1=NC2(CCCC2)C(=O)N1Cc1ccc(-c2ccccc2S(=O)(=O)NC(=O)c2ccccc2)cc1` had an ED30 in experiment [2] of 0.29 mg/kg. Moreover, the results for the IC50 in experiment [3] and in experiment [1] were 100 nM and 1 nM, respectively.
Take `CCCC1=NC2(CCCC2)C(=O)N1Cc1ccc(-c2ccccc2-c2nnn[nH]2)cc1`: the ED30 in experiment [2] turned out to be 0.32 mg/kg. In experiment [1], this compound displayed an IC50 of 0.9 nM.
Turning to `CCCC1=NC2(CCSCC2)C(=O)N1Cc1ccc(-c2ccccc2-c2nnn[nH]2)cc1`, the ED30 in experiment [2] was 0.26 mg/kg. In experiment [4], this compound came in with an IC50 of 2 nM.
Compound `CC1=NC(c2ccccc2)(c2ccccc2)C(=O)N1Cc1ccc(-c2ccccc2-c2nnn[nH]2)cc1` had a half-maximal inhibitory concentration (IC50) in experiment [1] of 100 nM. In other words, the sub-micromolar range.
In the case of `CCCC1=NC2(CCSCC2)C(=O)N1Cc1ccc(-c2ccccc2S(=O)(=O)NC(=O)c2ccccc2)cc1`, the ED30 in experiment [2] was 0.29 mg/kg. For the same compound, the figures for the IC50 in experiment [3] and in experiment [1] were 200 nM and 1 nM, respectively.
The compound `CCCC1=NC(C)(C)C(=O)N1Cc1ccc(-c2ccccc2S(=O)(=O)NC(=O)c2ccccc2)cc1` had an ED30 in experiment [2] of 0.17 mg/kg. Also, the IC50 was 200 nM in experiment [3] and 3 nM in experiment [1].
In the same order, the values of `CCCC1=NC2(CCCC2)C(=O)N1Cc1ccc(-c2ccccc2S(=O)(=O)NC(=O)c2ccccc2)cc1` are 0.14 mg/kg, 300 nM and 9 nM.
As for `CCCCC1=NC2(CCCC2)C(=O)N1Cc1ccc(-c2ccccc2-c2nnn[nH]2)cc1` [IRBESARTAN], in experiment [2], the ED30 was 0.16 mg/kg. This compound also yielded an IC50 in experiment [1] of 0.9 nM.
The like results for `CCCC1=NC2(CCOCC2)C(=O)N1Cc1ccc(-c2ccccc2-c2nn[nH]n2)cc1` were, in that order, 0.2 mg/kg and 8 nM.
In the same order, the values of `CCCC1=NC2(CC2)C(=O)N1Cc1ccc(-c2ccccc2-c2nn[nH]n2)cc1` are 0.54 mg/kg and 3 nM.
`CCCC1=NC(C(F)(F)F)(C(F)(F)F)C(=O)N1Cc1ccc(-c2ccccc2-c2nn[nH]n2)cc1` came in with an IC50 in experiment [1] of 20 nM.
The same measure, in the same setting: with `CCCC1=NC(c2ccccc2)(c2ccccc2)C(=O)N1Cc1ccc(-c2ccccc2-c2nn[nH]n2)cc1` the figure was 300 nM.
